Experiment: Antagonist activity at human CRFR1 expressed in HEK293 cells assessed as inhibition of sauvagine-induced cAMP accumulation by measuring sauvagine EC50 at 1 uM after 30 mins (Rvb = 0.203 nM)

## CCCCN(CC)c1nc(C)nc2c1sc(=N)n2-c1c(C)cc(C)cc1C
  EC50: 1.1 nM
